Data: ChEMBL document CHEMBL2074150, “Nucleotide binding and nucleotide hydrolysis properties of the ABC transporter MRP6 (ABCC6)” (Biochemistry, 2002)
Blank lines part the entries; values can stand above or below the compound they belong to.

How the values were obtained:
Format in all cases: functional, cell membranes, Membrane
Details in all cases: komagataella pastoris
[1] = target: T1, ATP-binding cassette sub-family C member 6 (Rattus norvegicus, UniProt O88269); assay: TP_TRANSPORTER: inhibition of photolabeling by IAARh123 (IAARh123: 1 uM, DOX: 1000 uM) in membranes from Mrp6-expressing P. pastoris
[2] = target: T1, ATP-binding cassette sub-family C member 6; assay: TP_TRANSPORTER: inhibition of photolabeling by IAARh123 (IAARh123: 1 uM, VBL: 1000 uM) in membranes from Mrp6-expressing P. pastoris
[3] = target: T1, ATP-binding cassette sub-family C member 6; assay: TP_TRANSPORTER: inhibition of photolabeling by IAARh123 (IAARh123: 1 uM, K571: 1000 uM) in membranes from Mrp6-expressing P. pastoris
[4] = target: T1, ATP-binding cassette sub-family C member 6; assay: TP_TRANSPORTER: inhibition of photolabeling by IAARh123 (IAARh123: 1 uM, LTC4: 300 uM) in membranes from Mrp6-expressing P. pastoris
[5] = target: T1, ATP-binding cassette sub-family C member 6; assay: TP_TRANSPORTER: inhibition of photolabeling by IAARh123 (IAARh123: 1 uM, VP-16: 1000 uM) in membranes from Mrp6-expressing P. pastoris

T1 sequence (O88269 whole entry): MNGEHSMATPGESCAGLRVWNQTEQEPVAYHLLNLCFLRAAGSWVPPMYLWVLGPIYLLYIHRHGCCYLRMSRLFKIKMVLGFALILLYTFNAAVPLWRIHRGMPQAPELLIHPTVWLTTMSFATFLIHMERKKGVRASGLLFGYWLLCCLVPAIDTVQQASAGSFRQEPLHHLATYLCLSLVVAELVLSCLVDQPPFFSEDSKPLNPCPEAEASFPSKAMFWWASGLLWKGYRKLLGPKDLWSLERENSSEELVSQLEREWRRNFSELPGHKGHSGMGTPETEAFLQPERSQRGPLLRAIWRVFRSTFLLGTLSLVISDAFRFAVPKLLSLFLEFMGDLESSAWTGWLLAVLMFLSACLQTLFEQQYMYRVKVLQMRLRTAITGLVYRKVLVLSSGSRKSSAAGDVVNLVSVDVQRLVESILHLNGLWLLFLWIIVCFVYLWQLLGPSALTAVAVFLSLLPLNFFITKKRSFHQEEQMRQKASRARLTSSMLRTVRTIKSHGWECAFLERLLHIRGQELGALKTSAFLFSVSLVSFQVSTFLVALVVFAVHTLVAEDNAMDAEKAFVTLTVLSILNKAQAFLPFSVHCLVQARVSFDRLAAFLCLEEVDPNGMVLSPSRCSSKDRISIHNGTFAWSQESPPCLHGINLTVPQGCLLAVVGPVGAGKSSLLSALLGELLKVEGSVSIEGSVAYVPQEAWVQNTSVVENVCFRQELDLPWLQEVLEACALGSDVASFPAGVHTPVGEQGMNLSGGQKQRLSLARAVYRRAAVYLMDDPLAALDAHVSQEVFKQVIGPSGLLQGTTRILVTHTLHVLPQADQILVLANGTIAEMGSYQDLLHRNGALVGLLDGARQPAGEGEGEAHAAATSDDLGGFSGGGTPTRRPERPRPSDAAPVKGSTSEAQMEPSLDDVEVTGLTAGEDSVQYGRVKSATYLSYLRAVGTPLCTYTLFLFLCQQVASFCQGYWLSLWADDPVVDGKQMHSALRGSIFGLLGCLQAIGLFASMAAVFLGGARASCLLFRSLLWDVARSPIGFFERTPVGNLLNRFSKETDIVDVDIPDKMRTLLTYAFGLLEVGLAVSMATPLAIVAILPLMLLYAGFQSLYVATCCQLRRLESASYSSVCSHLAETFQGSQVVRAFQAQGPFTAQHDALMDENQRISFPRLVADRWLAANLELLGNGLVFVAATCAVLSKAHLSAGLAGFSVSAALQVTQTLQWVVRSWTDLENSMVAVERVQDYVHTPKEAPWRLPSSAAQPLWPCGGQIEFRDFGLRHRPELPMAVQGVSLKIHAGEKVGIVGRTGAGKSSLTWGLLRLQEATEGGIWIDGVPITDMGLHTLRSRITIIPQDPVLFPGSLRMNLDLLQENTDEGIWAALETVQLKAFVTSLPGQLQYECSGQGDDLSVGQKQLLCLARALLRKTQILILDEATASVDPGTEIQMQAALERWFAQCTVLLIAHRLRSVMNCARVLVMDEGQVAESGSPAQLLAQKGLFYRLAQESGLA

Structure (SMILES): COc1cccc2c1C(=O)c1c(O)c3c(c(O)c1C2=O)C[C@@](O)(C(=O)CO)C[C@@H]3O[C@H]1C[C@H](N)[C@H](O)[C@H](C)O1 [DOXORUBICIN]
Activity [1]: inhibitor [(at a rough estimate) 55 % of control]

Structure (SMILES): CC[C@]1(O)C[C@@H]2CN(CCc3c([nH]c4ccccc34)[C@@](C(=O)OC)(c3cc4c(cc3OC)N(C)[C@H]3[C@@](O)(C(=O)OC)[C@H](OC(C)=O)[C@]5(CC)C=CCN6CC[C@]43[C@@H]65)C2)C1 [VINBLASTINE]
Activity [2]: inhibitor [(at a rough estimate) 55 % of control]

Structure (SMILES): CN(C)C(=O)CCSC(SCCC(=O)O)c1cccc(/C=C/c2ccc3ccc(Cl)cc3n2)c1 (stereo not given) [MK-571]
Activity [3]: inhibitor [(at a rough estimate) 60 % of control]

Activity [4]: is not an inhibitor [-]
Structure (SMILES): CCCCC/C=C\C\C=C/C=C/C=C/[C@@H](SC[C@@H](NC(=O)CC[C@H](N)C(=O)O)C(=O)NCC(=O)O)[C@@H](O)CCCC(=O)O [LEUKOTRIEN C4]

Activity [5]: is not an inhibitor [-]
Structure (SMILES): COc1cc([C@@H]2c3cc4c(cc3[C@@H](O[C@@H]3O[C@@H]5CO[C@@H](C)O[C@H]5[C@H](O)[C@H]3O)[C@H]3COC(=O)[C@H]23)OCO4)cc(OC)c1O [ETOPOSIDE]
